Test results published in BindingDB's records for doi:10.1021/jm020495y (F. Hoffmann-La Roche, 2003).

Columns and labels:
[1] = Antibacterial activity of TMP-susceptible Dihydrofolate reductase against […] ATCC 49619
[2] = Inhibitory activity of TMP-susceptible Dihydrofolate reductase against […] ATCC 49619

SMILES | IC50 [1] | IC50 [2]
CC1c2ccc3c4ccccc4n(C)c3c2CCN1Cc1cnc(N)nc1N (stereo unspecified) [5-(4,11-Dimethyl-1,2,4,11-tetrahydro-pyrido[4,3-a]carbazol-3-ylmethyl)-pyrimidine-2,4-diamine] | 4 nM | 10 nM
COc1ccc2c(c1)CN(Cc1cnc(N)nc1N)CC2c1cccc([N+](=O)[O-])c1 (stereo unspecified) [5-[7-Methoxy-4-(3-nitro-phenyl)-3,4-dihydro-1H-isoquinolin-2-ylmethyl]-pyrimidine-2,4-diamine] | 6 nM | 
Nc1ncc(CN2CCc3c([nH]c4ccccc34)C2)c(N)n1 [5-(1,3,4,9-Tetrahydro-beta-carbolin-2-ylmethyl)-pyrimidine-2,4-diamine] | 4 nM | 
CC1c2cc(Cc3ccccc3)c(-c3ccccc3)n2CCN1Cc1cnc(N)nc1N (stereo unspecified) [5-(7-Benzyl-1-methyl-6-phenyl-3,4-dihydro-1H-pyrrolo[1,2-a]pyrazin-2-ylmethyl)-pyrimidine-2,4-diamine] | 450 nM | 
CSc1c2n(c3cc(Cl)ccc13)CCN(Cc1cnc(N)nc1N)C2 [5-(7-Chloro-10-methylsulfanyl-3,4-dihydro-1H-pyrazino[1,2-a]indol-2-ylmethyl)-pyrimidine-2,4-diamine] | 2 nM | 
